Data taken from ChEMBL document CHEMBL4402541, “β-Lactamase Inhibitors To Restore the Efficacy of Antibiotics against Superbugs” (J Med Chem, 2020).
≈ marks a conversion by molar mass, not a printed value. Values belong to the compound of their own block, whether it stands above or below them.

Columns and labels:
Beta-lactamase TEM = Beta-lactamase TEM (Escherichia coli, UniProt P62593); assay: Inhibition of Escherichia coli TEM-1 beta-lactamase
[1] = test system: Beta-lactamase (Acinetobacter baumannii), Q8RLA6 [Y112A,M223A]; assay: Inhibition of Acinetobacter baumannii OXA-24 Y112A/M223A mutant by spectrophotometric method relative to control; settings: concentration not given here
Beta-lactamase (Acinetobacter baumannii), Q8RLA6 [Y112A,M223A], sequence (Q8RLA6 whole entry Y112A/M223A): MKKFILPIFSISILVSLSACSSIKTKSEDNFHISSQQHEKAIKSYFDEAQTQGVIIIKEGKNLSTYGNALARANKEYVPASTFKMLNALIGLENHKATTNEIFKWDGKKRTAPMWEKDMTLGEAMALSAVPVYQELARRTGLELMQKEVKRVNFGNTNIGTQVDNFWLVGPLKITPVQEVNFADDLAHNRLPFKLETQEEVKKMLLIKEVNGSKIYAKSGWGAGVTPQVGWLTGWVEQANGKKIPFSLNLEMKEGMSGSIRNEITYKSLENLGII

Acinetobacter baumannii [2] = assay: Inhibition of OXA-24/40 in Acinetobacter baumannii assessed as potentiation of meropenem-induced antibacterial activity by CLSI based broth microdilution method
Acinetobacter baumannii [3] = assay: Inhibition of Acinetobacter baumannii OXA-24 by spectrophotometry relative to control; settings: concentration not given here
Acinetobacter baumannii [4] = assay: Antibacterial activity against Acinetobacter baumannii ATCC 17978 harboring OXA-24/40 infected in BALB/c mouse pneumonia model assessed as reduction in bacterial burden by measuring bacterial growth at 50 mg,kg, im after 22 hrs co-treatment with imipenem; format: functional
[5] = Inhibition of Acinetobacter baumannii OXA-24 by spectrophotometric method
Acinetobacter baumannii [6] = assay: Antibacterial activity against Acinetobacter baumannii Ab1 clinical isolate harboring OXA-23 infected in BALB/c mouse pneumonia model assessed as reduction in bacterial burden by measuring bacterial growth at 50 mg,kg, im after 22 hrs co-treatment with imipenem; format: functional
[7] = test system: Beta-lactamase (Acinetobacter baumannii), Q8RLA6 [Y112A]; assay: Inhibition of Acinetobacter baumannii OXA-24 Y112A mutant by spectrophotometric method relative to control; settings: concentration not given here
Beta-lactamase (Acinetobacter baumannii), Q8RLA6 [Y112A], sequence (Q8RLA6 whole entry Y112A): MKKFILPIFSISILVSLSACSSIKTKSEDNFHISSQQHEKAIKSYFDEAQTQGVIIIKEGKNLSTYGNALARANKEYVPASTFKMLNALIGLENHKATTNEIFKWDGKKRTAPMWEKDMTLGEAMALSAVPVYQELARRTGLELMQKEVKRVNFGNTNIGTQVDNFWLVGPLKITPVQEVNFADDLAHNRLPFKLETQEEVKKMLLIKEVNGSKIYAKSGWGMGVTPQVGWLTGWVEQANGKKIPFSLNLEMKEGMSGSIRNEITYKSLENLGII

Acinetobacter baumannii [8] = assay: Inhibition of OXA-24/40 in Acinetobacter baumannii assessed as potentiation of imipenem-induced antibacterial activity by CLSI based broth microdilution method
Acinetobacter baumannii [9] = assay: Antibacterial activity against Acinetobacter baumannii ATCC 17978 harboring OXA-23 infected in BALB/c mouse pneumonia model assessed as reduction in bacterial burden by measuring bacterial growth at 50 mg,kg, im after 22 hrs co-treatment with imipenem; format: functional
Acinetobacter baumannii [10] = assay: Antibacterial activity against Acinetobacter baumannii JC12/04 clinical isolate harboring OXA-24/40 infected in BALB/c mouse pneumonia model assessed as reduction in bacterial burden by measuring bacterial growth at 50 mg,kg, im after 22 hrs co-treatment with imipenem; format: functional
[11] = Inhibition of NDM1 (unknown origin) using nitrocefin as substrate incubated for 10 mins by UV spectra analysis; parameters: species or system Bacteria
Pseudomonas aeruginosa [12] = assay: Antibacterial activity against Pseudomonas aeruginosa haboring AmpC assessed as reduction in microbial growth by CLSI based broth microdilution method; format: functional
Pseudomonas aeruginosa [13] = assay: Antibacterial activity against Pseudomonas aeruginosa haboring OXA-24/40 assessed as reduction in microbial growth by CLSI based broth microdilution method; format: functional
Pseudomonas aeruginosa [14] = assay: Antibacterial activity against Pseudomonas aeruginosa haboring KPC-2 assessed as reduction in microbial growth by CLSI based broth microdilution method; format: functional
Pseudomonas aeruginosa [15] = assay: Inhibition of Pseudomonas aeruginosa AmpC assessed as potentiation of piperacillin-induced antibacterial activity at 4 ug/ml by CLSI based broth microdilution method (reference value: > […] ug/ml)
Pseudomonas aeruginosa [16] = assay: Inhibition of Pseudomonas aeruginosa KPC-2 assessed as potentiation of piperacillin-induced antibacterial activity at 4 ug/ml by CLSI based broth microdilution method (reference value: > […] ug/ml)
Pseudomonas aeruginosa [17] = assay: Inhibition of Pseudomonas aeruginosa OXA-24/40 assessed as potentiation of piperacillin-induced antibacterial activity at 4 ug/ml by CLSI based broth microdilution method (reference value: > […] ug/ml)
Klebsiella pneumoniae [18] = assay: Potentiation of cefepime-induced antibacterial activity against Klebsiella pneumoniae at 8 ug/ml by CLSI based microdilution method; format: functional
Escherichia coli [19] = assay: Potentiation of cefepime-induced antibacterial activity against Escherichia coli at 8 ug/ml by CLSI based microdilution method; format: functional
Enterobacteriaceae [20] = assay: Inhibition of Beta-lactamase KPC in Enterobacteriaceae assessed as potentiation of meropenem-induced antibacterial activity by CLSI based agar dilution method
Enterobacteriaceae [21] = assay: Inhibition of Beta-lactamase OXA-48 in Enterobacteriaceae assessed as potentiation of imipenem-induced antibacterial activity by CLSI based agar dilution method
Enterobacteriaceae [22] = assay: Inhibition of Beta-lactamase KPC in Enterobacteriaceae assessed as potentiation of imipenem-induced antibacterial activity by CLSI based agar dilution method
Enterobacteriaceae [23] = assay: Inhibition of Beta-lactamase OXA-48 in Enterobacteriaceae assessed as potentiation of meropenem-induced antibacterial activity by CLSI based agar dilution method
Enterobacteriaceae [24] = assay: Inhibition of OXA-181 in Enterobacteriaceae assessed as potentiation of meropenem-induced antibacterial activity by CLSI based agar dilution method
Enterobacteriaceae [25] = assay: Inhibition of OXA-181 in Enterobacteriaceae assessed as potentiation of imipenem-induced antibacterial activity by CLSI based agar dilution method
Escherichia coli [26] = assay: Antibacterial activity against Escherichia coli by CLSI based microdilution method
Klebsiella pneumoniae [27] = assay: Antibacterial activity against Klebsiella pneumoniae by CLSI based microdilution method
Escherichia coli [28] = assay: Antibacterial activity against Escherichia coli harboring beta-lactamase infected in mouse relative to control; format: functional
[29] = Inhibition of AmpC beta-lactamase (unknown origin) by Cheng-Prusoff equation analysis; parameters: species or system Bacteria
Staphylococcus = assay: Antibacterial activity against methicillin-sensitive Staphylococcus; format: functional
Acinetobacter baumannii [30] = assay: Inhibition of Acinetobacter baumannii PBP2 assessed as ratio of Kinact to Ki by SDS-PAGE based fluorescence assay
Escherichia coli [31] = assay: Inhibition of Escherichia coli PBP2 assessed as ratio of Kinact to Ki by SDS-PAGE based fluorescence assay

Beta-lactamase TEM, sequence (P62593 whole entry): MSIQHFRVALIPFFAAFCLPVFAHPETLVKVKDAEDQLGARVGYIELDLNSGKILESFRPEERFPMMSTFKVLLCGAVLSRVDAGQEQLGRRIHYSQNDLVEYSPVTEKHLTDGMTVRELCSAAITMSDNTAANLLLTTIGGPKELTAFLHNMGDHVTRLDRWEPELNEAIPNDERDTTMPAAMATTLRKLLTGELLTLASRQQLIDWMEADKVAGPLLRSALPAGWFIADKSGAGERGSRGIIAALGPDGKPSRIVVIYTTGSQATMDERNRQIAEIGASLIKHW

Compound: CC(=O)N[C@@H](Cc1cccc(C(=O)O)c1)B(O)O
Ki (Beta-lactamase TEM): 0.11 µM

Compound: C[C@]1(COC(=O)Cc2ccc(O)c(O)c2)[C@H](C(=O)O)N2C(=O)/C(=C/c3ccccn3)[C@H]2S1(=O)=O
inhibition [1]: 100%
MIC (Acinetobacter baumannii [2]): 1 µg/mL
inhibition (Acinetobacter baumannii [3]): 100%
Activity (Acinetobacter baumannii [4]): 2.5 log10CFU/g
Ki [5]: 0.7 µM
Activity (Acinetobacter baumannii [6]): 1.7 log10CFU/g
inhibition [7]: 100%
MIC (Acinetobacter baumannii [8]): 1 µg/mL
Activity (Acinetobacter baumannii [9]): 4 log10CFU/g
Activity (Acinetobacter baumannii [10]): 4.5 log10CFU/g

Compound: Cn1cc[n+](C[C@@]2(C)[C@H](C(=O)[O-])N3C(=O)C[C@H]3S2(=O)=O)n1 [ENMETAZOBACTAM]
MIC90 (Klebsiella pneumoniae [18]): 1 µg/mL
MIC90 (Escherichia coli [19]): 0.5 µg/mL

Compound: CC1=C[C@@H](C#N)N2C[C@@H]1N(OS(=O)(=O)O)C2=O
MIC (Pseudomonas aeruginosa [15]): > 64 µg/mL
MIC (Pseudomonas aeruginosa [16]): 64 µg/mL
MIC (Pseudomonas aeruginosa [17]): 8 µg/mL

Compound: N#C[C@@H]1CC[C@@H]2CN1C(=O)N2OS(=O)(=O)O
MIC (Enterobacteriaceae [20]): < 2 µg/mL
MIC (Enterobacteriaceae [21]): < 2 µg/mL
MIC (Enterobacteriaceae [22]): < 2 µg/mL
MIC (Enterobacteriaceae [23]): < 2 µg/mL
MIC (Enterobacteriaceae [24]): < 2 µg/mL
MIC (Enterobacteriaceae [25]): < 2 µg/mL

Compound: CO/N=C(\C(=O)N[C@@H]1C(=O)N2C(C(=O)[O-])=C(C[N+]3(C)CCCC3)CS[C@H]12)c1csc(N)n1 [CEFEPIME]
MIC90 (Escherichia coli [26]): > 64 µg/mL
MIC90 (Klebsiella pneumoniae [27]): 16 µg/mL (≈ 33.3 µM)

Compound: O=C(NCB(O)O)S(=O)(=O)c1ccnc(-c2nnn[nH]2)c1
Activity (Escherichia coli [28]): 65%
Ki [29]: 0.8 nM

Compound: Cn1cc(/C=C2/C(=O)N3C(C(=O)O)=CS[C@H]23)nn1
MIC (Staphylococcus): 1 µg/mL (≈ 3.78 µM)

Compound: C[C@]1(Cn2ccnn2)[C@H](C(=O)O)N2C(=O)C[C@H]2S1(=O)=O
MIC (Acinetobacter baumannii [2]): 16 µg/mL
MIC (Acinetobacter baumannii [8]): 16 µg/mL

Compound: C=C(C)C1=C[C@@H](COC)N2C[C@@H]1N(OS(=O)(=O)O)C2=O
MIC (Pseudomonas aeruginosa [15]): > 64 µg/mL
MIC (Pseudomonas aeruginosa [16]): > 64 µg/mL
MIC (Pseudomonas aeruginosa [17]): > 64 µg/mL

Compound: CC1=C[C@@H](CO)N2C[C@@H]1N(OS(=O)(=O)O)C2=O
MIC (Pseudomonas aeruginosa [15]): 32 µg/mL
MIC (Pseudomonas aeruginosa [16]): 8 µg/mL
MIC (Pseudomonas aeruginosa [17]): 64 µg/mL

The remaining lines, values ahead:

IC50 [11]: 11.9 µM
Compound: N[C@H](CN[C@@H](CN[C@@H](CC(=O)O)C(=O)O)C(=O)O)C(=O)O

MIC (Pseudomonas aeruginosa [12]): > 64 µg/mL
MIC (Pseudomonas aeruginosa [13]): > 64 µg/mL
MIC (Pseudomonas aeruginosa [14]): > 64 µg/mL
Compound: CCN1CCN(C(=O)N[C@@H](C(=O)N[C@@H]2C(=O)N3[C@@H]2SC(C)(C)[C@@H]3C(=O)O)c2ccccc2)C(=O)C1=O [PIPERACILLIN]

MIC (Pseudomonas aeruginosa [15]): 8 µg/mL
MIC (Pseudomonas aeruginosa [16]): 8 µg/mL
MIC (Pseudomonas aeruginosa [17]): 64 µg/mL
Compound: NC(=O)[C@@H]1CC[C@@H]2CN1C(=O)N2OS(=O)(=O)O

IC50 [11]: 11.6 µM
Compound: N[C@@H](CN[C@@H](CN[C@H](CC(=O)O)C(=O)O)C(=O)O)C(=O)O

IC50 [11]: 12.5 µM
Compound: N[C@@H](CN[C@H](CN[C@@H](CC(=O)O)C(=O)O)C(=O)O)C(=O)O

Ki [29]: 0.2 nM
Compound: O=C(NCB(O)O)S(=O)(=O)c1cc(Cl)cc(-c2nnn[nH]2)c1

MIC (Pseudomonas aeruginosa [15]): 8 µg/mL
MIC (Pseudomonas aeruginosa [16]): 4 µg/mL
MIC (Pseudomonas aeruginosa [17]): 16 µg/mL
Compound: CC1=C[C@@H](C(N)=O)N2C[C@@H]1N(OS(=O)(=O)O)C2=O

IC50 [11]: 9.3 µM
Compound: N[C@@H](CN[C@@H](CN[C@@H](CC(=O)O)C(=O)O)C(=O)O)C(=O)O

IC50 [11]: 10.2 µM
Compound: N[C@H](CN[C@H](CN[C@@H](CC(=O)O)C(=O)O)C(=O)O)C(=O)O

Ki [29]: 0.05 nM
Compound: O=C(NCB(O)O)S(=O)(=O)c1cc(-c2nnn[nH]2)cc(C(F)(F)F)c1

MIC (Pseudomonas aeruginosa [15]): 2 µg/mL
Ratio (Acinetobacter baumannii [30]): 1 ×10³ /M/s
MIC (Pseudomonas aeruginosa [16]): 4 µg/mL
Ratio (Escherichia coli [31]): 1 ×10⁴ /M/s
MIC (Pseudomonas aeruginosa [17]): 8 µg/mL
Compound: CC1=C[C@@H]2CN(C(=O)N2OS(=O)(=O)O)[C@@H]1C(N)=O
